One test addresses T1, c-Kit(V654A) (Homo sapiens, UniProt P10721, V654A).
T1 construct: amino acids 544-end containing the V654A mutation; GST (N)
Description: c-Kit(V654A) assay. The format is biochemical. As to conditions: recombinant human c-Kit aa 544-end, 200 μM ATP, 1.4E-06 means 1.4×10^−6, read-out: Inhibition (IC50) of c-KIT (V654A). An outline of the steps:
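Radiometric filter-binding read-out: substrate 33P incorporation counted by scintillation after P30 filtermat washes in 75 mM phosphoric acid and methanol. Enzyme: N-GST recombinant human c-Kit aa 544-end carrying V654A.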

In another test the target is T2, PDGFRalpha(V561D) (Homo sapiens, UniProt P16234, V561D).
T2 construct: recombinant human PDGFRalpha, amino acids 550end containing the V561 D mutation; 6His (N)
T2 sequence (P16234 550-1089 V561D): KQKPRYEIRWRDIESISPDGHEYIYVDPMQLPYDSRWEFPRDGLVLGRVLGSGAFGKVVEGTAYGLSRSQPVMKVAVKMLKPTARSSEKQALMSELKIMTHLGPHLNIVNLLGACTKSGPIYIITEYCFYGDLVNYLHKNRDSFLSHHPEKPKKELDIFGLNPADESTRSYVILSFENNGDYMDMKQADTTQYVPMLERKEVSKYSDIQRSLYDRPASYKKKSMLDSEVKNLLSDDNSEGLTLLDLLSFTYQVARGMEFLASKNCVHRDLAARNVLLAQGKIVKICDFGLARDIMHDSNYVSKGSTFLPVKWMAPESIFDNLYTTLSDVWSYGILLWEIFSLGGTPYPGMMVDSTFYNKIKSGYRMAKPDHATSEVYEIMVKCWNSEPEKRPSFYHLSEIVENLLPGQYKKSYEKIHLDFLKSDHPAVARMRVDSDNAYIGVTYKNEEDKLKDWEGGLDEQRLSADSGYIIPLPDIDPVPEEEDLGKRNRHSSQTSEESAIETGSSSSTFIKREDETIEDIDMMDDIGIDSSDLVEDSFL
In words: PDGFRalpha(V561D) assay. The format is biochemical. The settings on record: recombinant human PDGFRalpha aa 550-end, 200 μM ATP, 1.4E-06 means 1.4×10^−6, read-out: Inhibition (IC50) of PDGFRα (V561D). In outline:
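Radiometric filter-binding assay: substrate phosphorylation by recombinant N-His-tagged human PDGFRα 550-end V561D was quenched with 3% phosphoric acid after 40 min at room temperature, then counted.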

The term IC50 denotes the concentration at which inhibition is half-maximal.

T1 sequence (P10721 544-976 V654A): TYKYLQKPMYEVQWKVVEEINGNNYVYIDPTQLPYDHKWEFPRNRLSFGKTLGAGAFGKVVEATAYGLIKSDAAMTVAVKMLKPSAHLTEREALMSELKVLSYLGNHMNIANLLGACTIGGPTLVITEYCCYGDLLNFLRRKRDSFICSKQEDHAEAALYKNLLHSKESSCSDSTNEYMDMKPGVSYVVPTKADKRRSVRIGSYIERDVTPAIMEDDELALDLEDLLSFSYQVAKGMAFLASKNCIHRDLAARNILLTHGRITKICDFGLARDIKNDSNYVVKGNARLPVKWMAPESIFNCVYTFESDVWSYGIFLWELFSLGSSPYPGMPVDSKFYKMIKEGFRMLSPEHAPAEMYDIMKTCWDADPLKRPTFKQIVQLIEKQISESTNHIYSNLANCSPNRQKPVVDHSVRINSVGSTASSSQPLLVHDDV

As for `O=c1[nH]c2ccncc2cc1-c1cn(-c2ccc(F)cc2)nn1` [A45, 3-[1-(4-fluoro-phenyl)-1H-[1,2,3]triazol-4-yl]-1H-[1,6]naphthyridin-2-one], the figures for the IC50 on c-Kit(V654A) and at PDGFRalpha(V561D) were 1.1 µM and 0.33 µM, respectively.
Regarding `Cc1cc2[nH]c(=O)c(-c3cn(-c4ccc(C(=O)N5CCN(C)CC5)cc4)nn3)cc2cc1F` [A222, 6-fluoro-7-methyl-3-{1-[4-(4-methyl-piperazine-1-carbonyl)-phenyl]-1H-[1,2,3]triazol-4-yl}-1H-quinolin-2-one], the figures for the IC50 at c-Kit(V654A) and at PDGFRalpha(V561D) were 0.072 µM and 0.21 µM, respectively.
For `O=C(c1ccc(-n2cc(-c3cc4ccc(Br)cc4[nH]c3=O)nn2)cc1)N1CCOCC1` [A91, 7-bromo-3-{1-[4-(morpholine-4-carbonyl)-phenyl]-1H-[1,2,3]triazol-4-yl}-1H-quinolin-2-one] the same measures were 0.019 µM and 0.0082 µM.
For `COC[C@H]1CC[C@H](COC)N1C(=O)c1ccc(-n2cc(-c3cc4cc(F)c(F)cc4[nH]c3=O)nn2)cc1` [A220, 3-{1-[4-((2R,5R)-2,5-bis-methoxymethyl-pyrrolidine-1-carbonyl)-phenyl]-1H-[1,2,3]triazol-4-yl}-6,7-difluoro-1H-quinolin-2-one] the same measures were 0.98 µM and 0.5 µM.
Taken in the same sequence, the figures for `CN1CCC(CNC(=O)c2ccc(-n3cc(-c4cc5ccccc5[nH]c4=O)nn3)cc2)CC1` [A15, N-(1-methyl-piperidin-4-ylmethyl)-4-[4-(2-oxo-1,2-dihydro-quinolin-3-yl)-[1,2,3]triazol-1-yl]-benzamide] were 0.049 µM and 0.047 µM.
With `CN(C)[C@@H]1CCCN(C(=O)c2ccc(-n3cc(-c4cc5ccc(F)cc5[nH]c4=O)nn3)cc2)C1` [A333, 3-{1-[4-((R)-3-dimethylamino-piperidine-1-carbonyl)-phenyl]-1H-[1,2,3]triazol-4-yl}-7-fluoro-1H-quinolin-2-one], the IC50 on c-Kit(V654A) is 0.063 µM; at PDGFRalpha(V561D), 0.12 µM.
For `CC(=O)OC1CCN(C(=O)c2ccc(-n3cc(-c4cc5cc(F)ccc5[nH]c4=O)nn3)cc2)CC1` [A102, acetic acid 1-{4-[4-(6-fluoro-2-oxo-1,2-dihydro-quinolin-3-yl)-[1,2,3]triazol-1-yl]-benzoyl}-piperidin-4-yl ester] the same measures were 0.011 µM and 0.048 µM.
Taken in the same sequence, the figures for `O=c1[nH]c2cc(F)c(F)cc2cc1-c1cn(-c2ccc(OCCCN3CCNCC3)cc2)nn1` [A135, 6,7-difluoro-3-{1-[4-(3-piperazin-1-yl-propoxy)-phenyl]-1H-[1,2,3]triazol-4-yl}-1H-quinolin-2-one] were 0.18 µM and 0.31 µM.
For `CN(C)[C@H]1CCCN(C(=O)c2ccc(-n3cc(-c4cc5ccc(F)cc5[nH]c4=O)nn3)cc2)C1` [A336, 3-{1-[4-((S)-3-dimethylamino-piperidine-1-carbonyl)-phenyl]-1H-[1,2,3]triazol-4-yl}-7-fluoro-1H-quinolin-2-one] the same measures were 0.18 µM and 0.24 µM.
With `NC(=O)[C@@H]1CCN(C(=O)c2ccc(-n3cc(-c4cc5cc(F)ccc5[nH]c4=O)nn3)cc2)C1` [A226, (R)-1-{4-[4-(6-fluoro-2-oxo-1,2-dihydro-quinolin-3-yl)-[1,2,3]triazol-1-yl]-benzoyl}-pyrrolidine-3-carboxylic acid amide], the IC50 at c-Kit(V654A) is 0.055 µM; at PDGFRalpha(V561D), 0.089 µM.
For `CN(C)C(=O)c1ccc(-n2cc(-c3cc4cccnc4[nH]c3=O)nn2)cc1` [A3, N,N-dimethyl-4-[4-(2-oxo-1,2-dihydro-[1,8]naphthyridin-3-yl)-[1,2,3]triazol-1-yl]-benzamide] the same measures were 0.053 µM and 0.016 µM.
Take `NC1CCN(C(=O)c2ccc(-n3cc(-c4cc5cc(F)c(F)cc5[nH]c4=O)nn3)cc2)CC1` [A143, 3-{1-[4-(4-amino-piperidine-1-carbonyl)-phenyl]-1H-[1,2,3]triazol-4-yl}-6,7-difluoro-1H-quinolin-2-one]: the IC50 came to 0.019 µM on c-Kit(V654A) and 0.31 µM at PDGFRalpha(V561D).
For `CN(C)[C@H]1CCCN(C(=O)c2ccc(-n3cc(-c4cc5cc(F)c(F)cc5[nH]c4=O)nn3)cc2)C1` [A329, 3-{1-[4-((S)-3-dimethylamino-piperidine-1-carbonyl)-phenyl]-1H-[1,2,3]triazol-4-yl}-6,7-difluoro-1H-quinolin-2-one] the same measures were 0.073 µM and 0.092 µM.
Taken in the same sequence, the figures for `CN1CCC(CNC(=O)c2ccc(-n3cc(-c4cc5cc(F)ccc5[nH]c4=O)nn3)cc2)CC1` [A22, 4-[4-(6-fluoro-2-oxo-1,2-dihydro-quinolin-3-yl)-[1,2,3]triazol-1-yl]-N-(1-methyl-piperidin-4-ylmethyl)-benzamide] were 0.027 µM and 0.006 µM.
Taken in the same sequence, the figures for `CN1CCN(C(=O)c2ccc(-n3cc(-c4cc5cccc(F)c5[nH]c4=O)nn3)cc2)CC1` [A150, 8-fluoro-3-{1-[4-(4-methyl-piperazine-1-carbonyl)-phenyl]-1H-[1,2,3]triazol-4-yl}-1H-quinolin-2-one] were 0.049 µM and 0.037 µM.
Consider `CCN(CC)CCOC1CCN(C(=O)c2ccc(-n3cc(-c4cc5cc(F)ccc5[nH]c4=O)nn3)cc2)C1` (centres unmarked) [A203, 3-(1-{4-[3-(2-diethylamino-ethoxy)-pyrrolidine-1-carbonyl]-phenyl}-1H-[1,2,3]triazol-4-yl)-6-fluoro-1H-quinolin-2-one], for which the IC50 on c-Kit(V654A) was 0.036 µM; at PDGFRalpha(V561D), 0.49 µM.
As for `O=C(c1ccc(-n2cc(-c3cc4cc(Cl)ccc4[nH]c3=O)nn2)cc1)N1C[C@@H](O)CO1` [A275, 6-chloro-3-{1-[4-((R)-4-hydroxy-isoxazolidine-2-carbonyl)-phenyl]-1H-[1,2,3]triazol-4-yl}-1H-quinolin-2-one], the IC50 at c-Kit(V654A) was 0.045 µM; on PDGFRalpha(V561D) it was 0.00021 µM.
In the case of `CN1CCN(c2ccc(-n3cc(-c4cc5cc(F)ccc5[nH]c4=O)nn3)cc2)C(=O)C1` [A71, 6-fluoro-3-{1-[4-(4-methyl-2-oxo-piperazin-1-yl)-phenyl]-1H-[1,2,3]triazol-4-yl}-1H-quinolin-2-one], the IC50 on c-Kit(V654A) stood at 0.008 µM; on PDGFRalpha(V561D), 0.004 µM.
For the compound `O=C(c1ccc(-n2cc(-c3cc4cc(Cl)ccc4[nH]c3=O)nn2)cc1)N1CCC2(COC2)C1` [A257, 6-chloro-3-{1-[4-(2-oxa-6-aza-spiro[3.4]octane-6-carbonyl)-phenyl]-1H-[1,2,3]triazol-4-yl}-1H-quinolin-2-one], the 50% inhibitory concentration (IC50) on c-Kit(V654A) amounted to 0.027 µM; on PDGFRalpha(V561D) it was 0.0037 µM.
`CC(=O)N1CCN(CCOc2ccc(-n3cc(-c4cc5cc(F)ccc5[nH]c4=O)nn3)cc2)CC1` [A100a, 3-(1-{4-[2-(4-acetyl-piperazin-1-yl)-ethoxy]-phenyl}-1H-[1,2,3]triazol-4-yl)-6-fluoro-1H-quinolin-2-one]: the values for the IC50 at c-Kit(V654A) and at PDGFRalpha(V561D) were 0.018 µM and 0.054 µM, respectively.
Taken in the same sequence, the figures for `O=C1COCCN1c1ccc(-n2cc(-c3cc4ccncc4[nH]c3=O)nn2)cc1` [A49, 3-{1-[4-(3-oxo-morpholin-4-yl)-phenyl]-1H-[1,2,3]triazol-4-yl}-1H-[1,7]naphthyridin-2-one] were 0.15 µM and 0.042 µM.
Taken in the same sequence, the figures for `O=C(c1ccc(-n2cc(-c3cc4c(F)cccc4[nH]c3=O)nn2)cc1)N1CCOCC1` [A48, 5-fluoro-3-{1-[4-(morpholine-4-carbonyl)-phenyl]-1H-[1,2,3]triazol-4-yl}-1H-quinolin-2-one] were 0.017 µM and 0.019 µM.
For `O=C(c1ccc(-n2cc(-c3cc4cc(F)ccc4[nH]c3=O)nn2)cc1)N1CCOC2(COC2)C1` [A231, 3-{1-[4-(2,5-dioxa-8-aza-spiro[3.5]nonane-8-carbonyl)-phenyl]-1H-[1,2,3]triazol-4-yl}-6-fluoro-1H-quinolin-2-one], the IC50 at c-Kit(V654A) is 0.09 µM; on PDGFRalpha(V561D), 0.34 µM.
Taken in the same sequence, the figures for `CC(=O)O[C@@H]1CCN(C(=O)c2ccc(-n3cc(-c4cc5cc(F)ccc5[nH]c4=O)nn3)cc2)C1` [A179, acetic acid (R)-1-{4-[4-(6-fluoro-2-oxo-1,2-dihydro-quinolin-3-yl)-[1,2,3]triazol-1-yl]-benzoyl}-pyrrolidin-3-yl ester] were 0.014 µM and 0.0016 µM.
For `O=C(c1ccc(-n2cc(-c3cc4ccccc4[nH]c3=O)nn2)cc1F)N1CCOCC1` [A37, 3-{1-[3-fluoro-4-(morpholine-4-carbonyl)-phenyl]-1H-[1,2,3]triazol-4-yl}-1H-quinolin-2-one] the same measures were 0.038 µM and 0.009 µM.
Taken in the same sequence, the figures for `CN1CCN(C(=O)c2ccc(-n3cc(-c4cc5cc(Cl)ccc5[nH]c4=O)nn3)cc2)CC1` [A151, 6-chloro-3-{1-[4-(4-methyl-piperazine-1-carbonyl)-phenyl]-1H-[1,2,3]triazol-4-yl}-1H-quinolin-2-one] were 0.003 µM and 0.001 µM.
Regarding `CC(C)(O)c1ccc(-n2cc(-c3cc4ccccc4[nH]c3=O)nn2)cc1` [A36, 3-{1-[4-(1-hydroxy-1-methyl-ethyl)-phenyl]-1H-[1,2,3]triazol-4-yl}-1H-quinolin-2-one], the IC50 at c-Kit(V654A) was determined as 0.029 µM; at PDGFRalpha(V561D) it was 0.017 µM.
For `O=C(NC1CCNCC1)c1ccc(-n2cc(-c3cc4cccnc4[nH]c3=O)nn2)cc1` [A51, 4-[4-(2-oxo-1,2-dihydro-[1,8]naphthyridin-3-yl)-[1,2,3]triazol-1-yl]-N-piperidin-4-yl-benzamide] the same measures were 0.091 µM and 0.022 µM.

For the origin of these results see US11939314B2, “Quinolin-2-one derivatives” (MERCK PATENT GMBH, priority 2016, dated 2024).
